# From patent US8389533B2, “Gem-disubstituted and spirocyclic amino pyridines/pyrimidines as cell cycle inhibitors” (Amgen Inc., priority 2008, dated 2013)
# Assays:
# [1] = target: Cdk4/CyclinD1 (Homo sapiens, UniProt P11802); assay: Cdk4 kinase inhibition assay (33P-ATP filter plate, Rb substrate); assay type: biochemical; conditions: recombinant Cdk4/CyclinD1, Rb substrate, 25 μM ATP, 1 hour room temperature; read-out: Cdk 4 IC50
# Method: (§1) The Cdk4 and Cdk6 inhibitory activity of the compounds is measured with a kinase inhibition assay using recombinant Cdk4/CyclinD1 or Cdk6/CyclinD3 protein complexes. The protein substrate used in the assay is the retinoblastoma protein (Rb). The kinase reactions are carried out in a 96-well filter plate (MSDV N6B50, Millipore). Compounds are serially diluted in kinase buffer (20 mM Tris-HCl, pH 7.4, 50 mM NaCl, 1 mM DTT, 1 mg/ml BSA) and added to the reaction mixture containing 2.5 ng/ml Cdk4/CyclinD1 or Cdk6/CyclinD3, 25 μM ATP, 10 μCi/ml [^33P]-ATP, 0.1 μg/ml Rb in the kinase buffer. The mixture is incubated at room temperature for 1 hour and the proteins precipitated with an equal volume of 20% TCA. The plates are washed with 10% TCA according to the manufacturer's instruction and dried at room temperature. The amount of the phosphorylated Rb is determined with a TopCount (PerkinElmer). The IC50 of a compound is determined by nonlinear regression curve fitting using software program Prism 5 (GraphPad Software).
# [2] = target: Cdk6/CyclinD3 (Homo sapiens, UniProt Q00534); assay: Cdk6 kinase inhibition assay (33P-ATP filter plate, Rb substrate); assay type: biochemical; conditions: recombinant Cdk6/CyclinD3, Rb substrate, 25 μM ATP, 1 hour room temperature; read-out: Cdk 6 IC50
# Method: as §1
# Cdk4/CyclinD1, sequence (P11802 whole entry): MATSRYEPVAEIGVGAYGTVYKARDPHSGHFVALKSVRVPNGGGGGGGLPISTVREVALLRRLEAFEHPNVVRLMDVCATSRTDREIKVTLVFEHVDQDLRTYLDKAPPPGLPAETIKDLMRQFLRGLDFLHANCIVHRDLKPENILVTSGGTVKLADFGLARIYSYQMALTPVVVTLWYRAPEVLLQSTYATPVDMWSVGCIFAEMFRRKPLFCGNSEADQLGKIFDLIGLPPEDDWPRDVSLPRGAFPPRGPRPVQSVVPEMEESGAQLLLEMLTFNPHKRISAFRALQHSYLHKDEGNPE
# Cdk4/CyclinD1, sequence (P24385 whole entry partner): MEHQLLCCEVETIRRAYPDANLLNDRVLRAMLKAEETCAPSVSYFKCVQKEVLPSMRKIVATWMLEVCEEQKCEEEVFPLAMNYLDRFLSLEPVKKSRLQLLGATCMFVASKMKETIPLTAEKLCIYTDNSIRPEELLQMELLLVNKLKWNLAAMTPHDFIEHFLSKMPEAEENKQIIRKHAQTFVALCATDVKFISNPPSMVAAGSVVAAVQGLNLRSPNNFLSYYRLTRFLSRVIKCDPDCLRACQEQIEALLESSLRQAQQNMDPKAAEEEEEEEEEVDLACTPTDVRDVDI
# Cdk6/CyclinD3, sequence (Q00534 whole entry): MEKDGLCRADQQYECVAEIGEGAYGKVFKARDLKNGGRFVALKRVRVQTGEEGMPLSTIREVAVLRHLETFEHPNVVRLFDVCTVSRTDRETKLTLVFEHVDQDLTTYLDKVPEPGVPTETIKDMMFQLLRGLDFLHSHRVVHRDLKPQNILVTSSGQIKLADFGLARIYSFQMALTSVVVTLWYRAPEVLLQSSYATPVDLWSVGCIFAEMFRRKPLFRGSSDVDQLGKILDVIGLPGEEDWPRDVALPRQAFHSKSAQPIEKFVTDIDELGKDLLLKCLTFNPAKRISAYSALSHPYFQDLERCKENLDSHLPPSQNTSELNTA
# Cdk6/CyclinD3, sequence (P30281 whole entry partner): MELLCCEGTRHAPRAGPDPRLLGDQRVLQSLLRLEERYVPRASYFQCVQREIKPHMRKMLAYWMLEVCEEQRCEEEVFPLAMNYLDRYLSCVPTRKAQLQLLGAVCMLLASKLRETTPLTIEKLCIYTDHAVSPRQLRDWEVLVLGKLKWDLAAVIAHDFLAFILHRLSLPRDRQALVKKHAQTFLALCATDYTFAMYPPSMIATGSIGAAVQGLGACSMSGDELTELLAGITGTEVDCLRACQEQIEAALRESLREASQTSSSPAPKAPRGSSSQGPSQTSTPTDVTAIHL
IC50 [1],IC50 [2],Compound
84 nM,33 nM,OC1CCC2(CC1)Oc1ncccc1-c1cnc(Nc3ccc(N4CCNCC4)cn3)nc12 (mixture of isomers) [Example 40]
77 nM,60 nM,"CC1(C)CC2(CCO1)Oc1ncccc1-c1cnc(Nc3ccc(N4CCNCC4)cc3)nc12 (racemic) [Example 35, (racemic)-2,2-dimethyl-N-(4-(1-piperazinyl)phenyl)-2,3,5,6-tetrahydrospiro[pyran-4,5′-pyrido[3′,2′:5,6]pyrano[3,4-d]pyrimidin]-3′-amine]"
0.8 nM,27 nM,"CC1(C)C=CC2(CC1)c1cnccc1-c1cnc(Nc3ccc(N4CCNCC4)cc3)nc12 (racemic) [Example 44, (racemic)-4,4-dimethyl-N-(4-(1-piperazinyl)phenyl)spiro[cyclohex-2-ene-1,9′-pyrido[4′,3′:3,4]cyclopenta[1,2-d]pyrimidin]-2′-amine]"
14.6 nM,205 nM,"CN(C)C1CCN(c2ccc(Nc3ncc4c(n3)C3(C=CC(C)(C)CC3)c3cnccc3-4)nn2)CC1 (racemic) [Example 76, (racemic)-4,4-dimethyl-N-(6-(4-(dimethylamino)piperidin-1-yl)-pyridazin-3-yl)spiro[cyclohex-2-ene-1,9′-pyrido[4′,3′:3,4]cyclopenta[1,2-d]pyrimidin]-2′-amine]"
14.2 nM,14.2 nM,"CN1CCN(c2ccc(Nc3ncc4c(n3)C3(CCCCC3)Oc3ccccc3-4)cc2)CC1 [Example 3, N-(4-(4-methyl-1-piperazinyl)phenyl)spiro[chromeno[3,4-d]pyrimidine-5,1′-cyclohexan]-3-amine]"
84 nM,13.5 nM,"c1ccc2c(c1)OC1(CCCC1)c1nc(Nc3ccc(N4CCNCC4)cn3)ncc1-2 [Example 15, N-(5-(1-piperazinyl)-2-pyridinyl)spiro[chromeno[3,4-d]pyrimidine-5,1′-cyclopentan]-3-amine]"
2850 nM,2620 nM,"CS(=O)(=O)c1cccc2c1OC1(CCCCC1)c1nc(Nc3ccc(N4CCNCC4)cn3)ncc1-2 [Example 23, 7-(methylsulfonyl)-N-(5-(1-piperazinyl)-2-pyridinyl)spiro[chromeno[3,4-d]pyrimidine-5,1′-cyclohexan]-3-amine]"
330 nM,540 nM,"c1cnc2c(c1)OC1(CCOCC1)c1nc(Nc3ccc(N4CCNCC4)cc3)ncc1-2 [Example 25, N-(4-(1-piperazinyl)phenyl)-2,3,5,6-tetrahydrospiro[pyran-4,6′-pyrido[2′,3′:5,6]pyrano[3,4-d]pyrimidin]-8′-amine]"
74 nM,68 nM,"CC1(C)CCC2(CC1)Oc1ncccc1-c1cnc(Nc3ccc(N4CCNCC4)cn3)nc12 [Example 27, 4,4-dimethyl-N-(5-(1-piperazinyl)-2-pyridinyl)spiro[cyclohexane-1,5′-pyrido[3′,3′:5,6]pyrano[3,4-d]pyrimidin]-3′-amine]"
5.9 nM,1.1 nM,"c1cnc2c(c1)-c1cnc(Nc3ccc(N4CCNCC4)cc3)nc1C1(CCCCC1)O2 [Example 29, N-(4-(1-piperazinyl)phenyl)spiro[cyclohexane-1,5′-pyrido[3′,2′:5,6]pyrano[3,4-d]pyrimidin]-3′-amine]"
44 nM,266 nM,"O=C(c1csc(Nc2ncc3c(n2)C2(CCCCC2)c2cnccc2-3)n1)N1CCNCC1 [Example 48, N-(4-(1-piperazinylcarbonyl)-1,3-thiazol-2-yl)spiro[cyclohexane-1,9′-pyrido[4′,3′:3,4]cyclopenta[1,2-d]pyrimidin]-2′-amine]"
668 nM,–,"CC1(C)CCc2cnc(Nc3ccc(N4CCNCC4)cc3)nc21 [Example 49, 7,7-dimethyl-N-(4-(1-piperazinyl)phenyl)-6,7-dihydro-5H-cyclopenta[d]pyrimidin-2-amine]"
56.2 nM,81 nM,"c1ccc2c(c1)-c1cnc(Nc3ccc(N4CCNCC4)cc3)nc1C21CCNCC1 [Example 50, N-(4-(1-piperazinyl)phenyl)spiro[indeno[2,1-d]pyrimidine-9,4′-piperidin]-2-amine]"
410 nM,–,"c1cc2c(cn1)C1(CCOCC1)c1nc(Nc3ccc(N4CCNCC4)cn3)ncc1-2 [Example 63, N-(5-(1-piperazinyl)-2-pyridinyl)-2,3,5,6-tetrahydrospiro[pyran-4,9′-pyrido[4′,3′:3,4]cyclopenta[1,2-d]pyrimidin]-2′-amine]"
1140 nM,–,"O=C1NC2(CCCCC2)c2nc(Nc3ccc(N4CCNCC4)cc3)ncc21 [Example 68, 2′-((4-(1-piperazinyl)phenyl)amino)spiro[cyclohexane-1,7′-pyrrolo[3,4-d]pyrimidin]-5′(6′H)-one]"
710 nM,510 nM,"CC1CC(O)C2(CC=CC2)c2nc(Nc3ccc(N4CCNCC4)cn3)ncc21 [Example 71, (7S)-5′-methyl-2′-((5-(1-piperazinyl)-2-pyridinyl)amino)-6′,7′-dihydro-5′H-spiro[cyclopent-3-ene-1,8′-quinazolin]-7′-ol]"
2500 nM,–,"CC1=CC(=O)C2(CCCC2)c2nc(Nc3ccc(N4CCNCC4)cn3)ncc21 [Example 73, 5′-methyl-2′-((5-(1-piperazinyl)-2-pyridinyl)amino)-7′H-spiro[cyclopentane-1,8′-quinazolin]-7′-one]"
3500 nM,1800 nM,"C[C@@H]1CC(=O)C2(CC=CC2)c2nc(Nc3ccc(N4CCNCC4)cn3)ncc21 [Example 74, (5′R)-5′-methyl-2′-((5-(1-piperazinyl)-2-pyridinyl)amino)-5′,6′-dihydro-7′H-spiro[cyclopent-3-ene-1,8′-quinazolin]-7′-one]"
